Counter-ions that a name gives are not always drawn.
Test system: Male Wistar rats
Test: Determination of the diuresis (urine volume over 6 hours after oral dosing)
Format: in vivo, rat
Conditions: p.o. 3 mg/kg in 0.5% Methocel, male Wistar rats, 6 hours, mean ± SEM, n=6 or 7
Method: Procedures were approved by the Institutional Animal Care and Use Committee of NitroMed, Inc. Male Wistar rats (180-200 g) were purchased from Charles River Laboratories (Kingston, N.Y. or Raleigh, N.C.) and allowed to acclimate in the facility for a period of at least 72 h. Rats were randomly housed 2-3 per cage in a light-controlled room with a 12 hour light/dark cycle and allowed ad libitum access to food and water.
Prior to the experiment, each rat was placed in a metabolic cage and allowed to acclimate for a period of 24-48 hours with food and water ad libitum. During this acclimation period, rats received mash food instead of pellet food to prevent contamination of the urine samples. All rats were fasted for 18 hours prior to experimentation. In addition, water was removed 90 minutes prior to oral dosing with test compound or vehicle.
The test compounds were prepared immediately prior to dosing in 0.5% Methocel (F4M Premium Hydroxypropyl Methylcellulose, lot # PF12012N12; Dow Chemical Company, USA) and homogenized with a glass/Teflon pestle motorized homogenizer. Gently vortexed test compounds were administered intragastrically (p.o.; 30 mg/kg or 3 mg/kg) at a dose volume of 3 ml per rat using an 18 gauge gavage needle. Urine volume (ml) was monitored and urine was collected for subsequent electrolyte analysis over a 6 hours period. […] Data are expressed as mean ±SEM; n=6 or 7.

Structure (SMILES) | Urine collected in 6 hours (mL) (3 mg/kg)
NS(=O)(=O)c1cc2c(cc1Cl)NCN(CCCOc1cc(CO)cc(CO)c1)S2(=O)=O [Example 70b, 2H-1,2,4-Benzothiadiazine-7-sulfonamide, 2-[3-[3,5-bis(hydroxymethyl)phenoxy]propyl]-6-chloro-3,4-dihydro-, 1,1-dioxide] | 2.8 ± 0.7 mL
NS(=O)(=O)c1cc2c(cc1Cl)NCN(CCCCO[N+](=O)[O-])S2(=O)=O [Example 40b, 2H-1,2,4-Benzothiadiazine-7-sulfonamide, 6-chloro-3,4-dihydro-2-[4-(nitrooxy)butyl]-, 1,1-dioxide] | 6.0 ± 0.7 mL
NS(=O)(=O)c1cc2c(cc1Cl)NCN(CC(O)CO)S2(=O)=O (stereo not shown) [Example 75b, 2H-1,2,4-Benzothiadiazine-7-sulfonamide, 6-chloro-2-(2,3-dihydroxypropyl)-3,4-dihydro-, 1,1-dioxide] | 4.6 ± 0.6 mL
NS(=O)(=O)c1cc2c(cc1Cl)NCN(CCOC(=O)CCCCO[N+](=O)[O-])S2(=O)=O [Example 44, Pentanoic acid, 5-(nitrooxy)-, 2-[7-(aminosulfonyl)-6-chloro-3,4-dihydro-1,1-dioxido-2H-1,2,4-benzothiadiazin-2-yl]ethyl ester] | 2.5 ± 0.3 mL
NS(=O)(=O)c1cc2c(cc1Cl)NCN(CC(=O)O)S2(=O)=O [Example 31a, 2H-1,2,4-Benzothiadiazine-2-acetic acid, 7-(aminosulfonyl)-6-chloro-3,4-dihydro-, 1,1-dioxide] | 2.5 ± 0.3 mL
NS(=O)(=O)c1cc2c(cc1Cl)NCN(CCOc1cc(CO)cc(CO)c1)S2(=O)=O [Example 71b, 2H-1,2,4-Benzothiadiazine-7-sulfonamide, 2-[2-[3,5-bis(hydroxymethyl)phenoxy]ethyl]-6-chloro-3,4-dihydro-, 1,1-dioxide] | 2.1 ± 0.5 mL
NS(=O)(=O)c1cc2c(cc1Cl)NCN(CCCCOc1cc(CO)cc(CO)c1)S2(=O)=O [Example 69a, 2H-1,2,4-Benzothiadiazine-7-sulfonamide, 2-[4-[3,5-bis(hydroxymethyl)phenoxy]butyl]-6-chloro-3,4-dihydro-, 1,1-dioxide] | 2.7 ± 0.6 mL
NS(=O)(=O)c1cc2c(cc1Cl)NC(CN1CCC(CCO[N+](=O)[O-])CC1)NS2(=O)=O.O=C(O)CC(O)(CC(=O)O)C(=O)O (stereo not shown) [Example 36c, 2H-1,2,4-Benzothiadiazine-7-sulfonamide, 6-chloro-3,4-dihydro-3-[[4-[2-(nitrooxy)ethyl]-1-piperidinyl]methyl]-, 1,1-dioxide, 2-hydroxy-1,2,3-propanetricarboxylate (1:1) (salt)] | 3.0 ± 0.4 mL
NC1=Nc2cc(Cl)c(S(N)(=O)=O)cc2S(=O)(=O)N1 [Example 4b, 2H-1,2,4-Benzothiadiazine-7-sulfonamide, 3-amino-6-chloro-, 1,1-dioxide] | 4.0 ± 0.5 mL
NS(=O)(=O)c1cc2c(cc1Cl)NC(CBr)NS2(=O)=O (stereo not shown) [Example 36a, 2H-1,2,4-Benzothiadiazine-7-sulfonamide, 3-(bromomethyl)-6-chloro-3,4-dihydro-, 1,1-dioxide] | 5.5 ± 0.6 mL

Same assay, conditions: p.o. 30 mg/kg in 0.5% Methocel, male Wistar rats, 6 hours, mean ± SEM, n=6 or 7

Structure (SMILES) | Urine collected in 6 hours (mL) (30 mg/kg)
NS(=O)(=O)c1cc2c(cc1Cl)N[C@@H](CCCCO[N+](=O)[O-])NS2(=O)=O (single isomer, unassigned) [17c (enantiomer 1)] | 7.0 ± 0.6 mL
NS(=O)(=O)c1cc2c(cc1Cl)N[C@H](CCCCO[N+](=O)[O-])NS2(=O)=O (single isomer, unassigned) [17c (enantiomer 2)] | 7.8 ± 0.5 mL
CC(C)(C)OC(=O)N1CCC2(CC1)Nc1cc(C(F)(F)F)c(S(N)(=O)=O)cc1S(=O)(=O)N2 [Example 12a, Spiro[2H-1,2,4-benzothiadiazine-3(4H), 4′-piperidine]-1′-carboxylic acid, 7-(aminosulfonyl)-6-(trifluoromethyl)-, 1,1-dimethylethyl ester, 1,1-dioxide] | 4.0 ± 0.4 mL
Cc1c(C2Nc3cc(C(F)(F)F)c(S(N)(=O)=O)cc3S(=O)(=O)N2)no[n+]1[O-] (stereo not shown) [Example 10, 2H-1,2,4-Benzothiadiazine-7-sulfonamide, 3,4-dihydro-3-(4-methyl-5-oxido-1,2,5-oxadiazol-3-yl)-6-(trifluoromethyl)-, 1,1-dioxide] | 6.9 ± 0.9 mL
NS(=O)(=O)c1cc2c(cc1C(F)(F)F)NC1(CCN(C(=O)c3cccc(CO[N+](=O)[O-])c3)CC1)NS2(=O)=O [Example 15b, Spiro[2H-1,2,4-benzothiadiazine-3(4H), 4′-piperidine]-7-sulfonamide, 1′-[3-[(nitrooxy)methyl]benzoyl]-6-(trifluoromethyl)-, 1,1-dioxide] | 4.5 ± 0.2 mL
NS(=O)(=O)c1cc2c(cc1Cl)N=C(NC(=O)CCCCCO[N+](=O)[O-])NS2(=O)=O [Example 5b, Hexanamide, N-[7-(aminosulfonyl)-6-chloro-1,1-dioxido-2H-1,2,4-benzothiadiazin-3-yl]-6-(nitrooxy)-] | 4.5 ± 0.5 mL

Same assay, conditions: rat, in vivo, po

Structure (SMILES) | Urine collected in 6 hours (mL) (3 mg/kg) | Urine collected in 6 hours (mL) (30 mg/kg)
NS(=O)(=O)c1cc2c(cc1Cl)NCN(CC(CO[N+](=O)[O-])O[N+](=O)[O-])S2(=O)=O (stereo not shown) [Example 75c, 2H-1,2,4-Benzothiadiazine-7-sulfonamide, 2-[2,3-bis(nitrooxy)propyl]-6-chloro-3,4-dihydro-, 1,1-dioxide] | 5.4 ± 0.6 mL | 
NS(=O)(=O)c1cc2c(cc1Cl)NCN(CC(=O)N(CCO[N+](=O)[O-])CCO[N+](=O)[O-])S2(=O)=O [Example 39, 2H-1,2,4-Benzothiadiazine-2-acetamide, 7-(aminosulfonyl)-6-chloro-3,4-dihydro-N,N-bis[2-(nitrooxy)ethyl]-, 1,1-dioxide] | 2.5 ± 0.5 mL | 
NS(=O)(=O)c1cc2c(cc1Cl)NC1(CCN(C(=O)CCC(CO[N+](=O)[O-])O[N+](=O)[O-])CC1)NS2(=O)=O (stereo not shown) [Example 22b, Spiro[2H-1,2,4-benzothiadiazine-3(4H), 4′-piperidine]-7-sulfonamide, 1′-[4,5-bis(nitrooxy)-1-oxopentyl]-6-chloro-, 1,1-dioxide] |  | 2.5 ± 0.2 mL
NS(=O)(=O)c1cc2c(cc1Cl)NCN(CCOC(=O)CCC(CO[N+](=O)[O-])O[N+](=O)[O-])S2(=O)=O (stereo not shown) [Example 42, Pentanoic acid, 4,5-bis(nitrooxy)-, 2-[7-(aminosulfonyl)-6-chloro-3,4-dihydro-1,1-dioxido-2H-1,2,4-benzothiadiazin-2-yl]ethyl ester] | 6.2 ± 0.3 mL | 
NS(=O)(=O)c1cc2c(cc1Cl)NCN(C[C@H](CO[N+](=O)[O-])O[N+](=O)[O-])S2(=O)=O (single isomer, unassigned) [75d (enantiomer 1)] | 5.3 ± 0.3 mL | 
NS(=O)(=O)c1cc2c(cc1Cl)NCN(CC(=O)OC[C@H](CO[N+](=O)[O-])O[N+](=O)[O-])S2(=O)=O [Example 31b, 2H-1,2,4-Benzothiadiazine-2-acetic acid, 7-(aminosulfonyl)-6-chloro-3,4-dihydro-, (2R)-2,3-bis(nitrooxy)propyl ester, 1,1-dioxide] | 2.0 ± 0.3 mL | 
NS(=O)(=O)c1cc2c(cc1Cl)NCN(C[C@@H](CO[N+](=O)[O-])O[N+](=O)[O-])S2(=O)=O (single isomer, unassigned) [75d (enantiomer 2)] | 5.5 ± 0.4 mL | 

Test system: not given
Test: not given
Conditions: not given

Structure (SMILES) | melting point
NS(=O)(=O)c1cc2c(cc1Cl)NCN(CCCCCCO)S2(=O)=O [Example 66, 2H-1,2,4-Benzothiadiazine-7-sulfonamide, 6-chloro-3,4-dihydro-2-(6-hydroxyhexyl)-, 1,1-dioxide] | 176 to 179 °C
NS(=O)(=O)c1cc2c(cc1Cl)NCN(CC1CO1)S2(=O)=O (stereo not shown) [Example 81, 2H-1,2,4-benzothiadiazine-7-sulfonamide, 6-chloro-3,4-dihydro-2-(oxiranylmethyl)-, 1,1-dioxide] | 192 to 197 °C
NS(=O)(=O)c1cc2c(cc1Cl)NC(Cc1ccc(CO[N+](=O)[O-])cc1)=NS2(=O)=O [Example 29d, 4H-1,2,4-Benzothiadiazine-7-sulfonamide, 6-chloro-3-[[4-[(nitrooxy)methyl]phenyl]methyl]-, 1,1-dioxide] | > 260 °C
NS(=O)(=O)c1cc2c(cc1Cl)N=C(NC(=O)CCCCCO[N+](=O)[O-])NS2(=O)=O (as salt: hydrochloride) [Example 5b, Hexanamide, N-[7-(aminosulfonyl)-6-chloro-1,1-dioxido-2H-1,2,4-benzothiadiazin-3-yl]-6-(nitrooxy)-] | 177 to 179 °C
NS(=O)(=O)c1cc2c(cc1Cl)NC1(CCN(C(=O)CCCCO[N+](=O)[O-])CC1)NS2(=O)=O [Example 18b, Spiro[2H-1,2,4-benzothiadiazine-3(4H), 4′-piperidine]-7-sulfonamide, 6-chloro-1′-[5-(nitrooxy)-1-oxopentyl]-, 1,1-dioxide] | 155 °C (dec.)

Source: patent US7595313B2, “Nitric oxide donating diuretic compounds, compositions and methods of use” (NicOx, S.A., priority 2005, dated 2009)
